Test results as given in patent US20090143279A1 (priority 2007, published 2009).
Like-named read-outs stand apart in the source and are kept apart here.

Assays:
[1] = tested on: mtOXPHOS transcripts; type: cell-based, mouse; details: for mitoOX (composite Z-score): normalized score vs mock-treated (DMSO) wells
[2] = tested on: cellular dehydrogenase activity; details: for MTT (composite Z-score): normalized score vs mock-treated (DMSO) wells
[3] = tested on: reactive oxygen species; type: cell-based, mouse; details: for ROS (composite Z-score): normalized score vs mock-treated (DMSO) wells
[4] = tested on: mitochondrial membrane potential; type: cell-based, mouse; details: for ΔΨm (composite Z-score): normalized score vs mock-treated (DMSO) wells
[5] = tested on: nuOXPHOS transcripts; type: cell-based, mouse; details: for nucOX (composite Z-score): normalized score vs mock-treated (DMSO) wells
[6] = tested on: OXPHOS gene expression; type: cell-based, mouse; details: for GE-HTS (composite Z-score): normalized score vs mock-treated (DMSO) wells
[7] = tested on: C2C12 myotubes; details: for Viability (composite Z-score): normalized score vs mock-treated (DMSO) wells
[8] = tested on: cytochrome c; type: cell-based, mouse; details: for cyt c (composite Z-score): normalized score vs mock-treated (DMSO) wells
[9] = 20 μM, composite Z-score vs DMSO
[10] = normalized composite Z-score vs mock-treated (DMSO) wells, Conc 20 μM
[11] = composite Z-score vs DMSO wells, Conc 20 μM
[12] = composite Z-score vs DMSO, Conc 20 μM
[13] = 18.5 μM, composite Z-score vs DMSO
[14] = composite Z-score vs DMSO, Conc 9.58 μM
[15] = composite Z-score vs mock-treated (DMSO) wells, concentration of each compound in μM
[16] = composite Z-score vs mock-treated (DMSO) wells, Conc 20 μM

OC(c1cc(C(F)(F)F)nc2c(C(F)(F)F)cccc12)C1CCCCN1 (stereo not drawn) [mefloquine]
mitoOX [1]: 0.007
mitoOX [1, 9]: −0.093
MTT [2]: −1.368
MTT [2, 9]: 0.374
ROS [3]: −0.069
ROS [3, 9]: −0.983
ΔΨm [4]: −0.537
ΔΨm [4, 9]: −0.505
nucOX [5]: −0.073
nucOX [5, 9]: 0.552
GE-HTS [6]: −0.036
GE-HTS [6, 9]: 0.362
Viability [7]: −0.183
Viability [7, 9]: 1.135
cyt c [8]: 0.498
cyt c [8, 9]: −1.496

OC[C@H]1O[C@@](CO)(O[C@H]2O[C@H](CO)[C@@H](O)[C@H](O)[C@H]2O)[C@@H](O[C@H]2O[C@H](CO)[C@@H](O)[C@H](O)[C@H]2O)[C@@H]1O [melezitose]
mitoOX [1, 10]: −1.553
MTT [2, 10]: −0.968
ROS [3, 10]: −0.125
ΔΨm [4, 10]: −0.605
nucOX [5, 10]: 0.054
GE-HTS [6, 10]: −0.502
Viability [7, 10]: −0.843
cyt c [8, 10]: 0.284

N[C@@H](Cc1ccc(N(CCCl)CCCl)cc1)C(=O)O [melphalan]
mitoOX [1, 11]: 1.453
MTT [2, 11]: −1.387
ROS [3, 11]: −0.265
ΔΨm [4, 11]: 0.151
nucOX [5, 11]: 1.282
GE-HTS [6, 11]: 1.449
Viability [7, 11]: −0.360
cyt c [8, 11]: −0.954

CC1CCC(C(C)C)C(OC(=O)c2ccccc2)C1 (stereo not drawn) [menthyl benzoate]
mitoOX (composite Z-score) ([1]; Conc 20 μM): −0.336
MTT (composite Z-score) ([2]; Conc 20 μM): −1.026
ROS (composite Z-score) ([3]; Conc 20 μM): 1.375
ΔΨm (composite Z-score) ([4]; Conc 20 μM): 0.016
nucOX (composite Z-score) ([5]; Conc 20 μM): 0.047
GE-HTS (composite Z-score) ([6]; Conc 20 μM): −0.115
Viability (composite Z-score) ([7]; Conc 20 μM): −0.151
cyt c (composite Z-score) ([8]; Conc 20 μM): −0.724

C[N+]1(C)CCCC(OC(=O)C(O)(c2ccccc2)c2ccccc2)C1 (stereo not drawn) [mepenzolate]
mitoOX [1, 11]: −0.129
MTT [2, 11]: −0.894
ROS [3, 11]: 0.368
ΔΨm [4, 11]: 1.198
nucOX [5, 11]: 0.062
GE-HTS [6, 11]: −0.025
Viability [7, 11]: 0.333
cyt c [8]: 0.666
cyt c [8, 11]: 0.855

NCCS [mercaptamine]
mitoOX [1]: −1.294
MTT [2]: −0.085
ROS [3]: −0.661
ΔΨm [4]: −0.724
nucOX [5]: −0.980
GE-HTS [6]: −1.175
Viability [7]: −0.271
cyt c [8]: 0.320

CC1=C2C(O)C(=O)OC3CC4C(C)(C)C(=O)C=C[C@]4(C)C(CC1)[C@]23C (stereo partly drawn) [merogedunin]
mitoOX [1, 10]: −0.350
MTT [2, 10]: −0.645
ROS [3, 10]: 0.741
ΔΨm [4, 10]: −0.214
nucOX [5, 10]: −0.160
GE-HTS [6, 10]: −0.254
Viability [7, 10]: −0.222
cyt c [8, 10]: 0.490

CC(C)NCC(O)c1cc(O)cc(O)c1 (stereo not drawn) [metaproterenol]
mitoOX [1, 11]: −0.094
MTT [2, 11]: −0.832
ROS [3, 11]: 2.154
ΔΨm [4, 11]: −1.005
nucOX [5, 11]: 0.138
GE-HTS [6, 11]: 0.086
Viability [7, 11]: 0.206
cyt c [8]: 0.339
cyt c [8, 11]: 0.212

C[C@H](N)[C@H](O)c1cccc(O)c1 [metaraminol]
mitoOX [1, 12]: −0.745
MTT [2, 12]: −1.268
ROS [3, 12]: 0.313
ΔΨm [4, 12]: −0.772
nucOX [5, 12]: −0.456
GE-HTS [6, 12]: −0.589
Viability [7, 12]: 0.107
cyt c [8, 12]: 0.327

C=C1c2cccc(O)c2C(=O)C2=C(O)[C@]3(O)C(=O)C(C(N)=O)=C(O)[C@@H](N(C)C)[C@@H]3[C@@H](O)[C@H]12 [methacycline, reference compound]
mitoOX [1, 11]: 0.258
MTT [2, 11]: −1.744
ROS [3, 11]: 1.083
ΔΨm [4, 11]: −1.616
nucOX [5, 11]: −0.600
GE-HTS [6, 11]: −0.340
Viability [7, 11]: −1.645
cyt c [8]: 0.020
cyt c [8, 11]: 0.723

CNC(=O)ON=C(C)SC [methomyl]
mitoOX [1, 12]: −0.317
MTT [2, 12]: −1.481
ROS [3, 12]: 0.231
ΔΨm [4, 12]: −0.493
nucOX [5, 12]: −0.805
GE-HTS [6, 12]: −0.703
Viability [7, 12]: 1.361
cyt c [8, 12]: −0.007

COc1c2occc2cc2ccc(=O)oc12 [methoxsalen]
mitoOX [1, 9]: −0.489
MTT [2, 9]: −0.976
ROS [3, 9]: 0.310
ΔΨm [4, 9]: −0.034
nucOX [5, 9]: −0.513
GE-HTS [6, 9]: −0.562
Viability [7, 9]: 0.416
cyt c [8, 9]: −0.889

COc1c2occc2cc2ccc(=O)oc12 [methoxy-8-psoralen]
mitoOX [1, 13]: 0.340
MTT [2, 13]: −0.371
ROS [3, 13]: 0.103
ΔΨm [4, 13]: 0.605
nucOX [5, 13]: 0.952
GE-HTS [6, 13]: 0.803
Viability [7, 13]: 1.463
cyt c [8, 13]: 0.227

COC(=O)c1c(C)cc(O)cc1O [methyl orsellinate]
mitoOX [1, 12]: −1.146
MTT [2, 12]: 0.148
ROS [3, 12]: 1.212
ΔΨm [4, 12]: −0.632
nucOX [5, 12]: −1.000
GE-HTS [6, 12]: −1.129
Viability [7, 12]: −0.008
cyt c [8, 12]: 0.573

COP(=S)(OC)Oc1ccc([N+](=O)[O-])cc1 [methyl parathione]
mitoOX [1]: 0.450
MTT [2]: −0.341
ROS [3]: 0.218
ΔΨm [4]: −0.353
nucOX [5]: 0.500
GE-HTS [6]: 0.500
Viability [7]: 1.967
cyt c [8]: 0.414

COc1c2c(cc3occ(-c4ccc5c(c4)OCO5)c(=O)c13)OC(C)(C)C=C2 [methyl robustone, reference compound]
mitoOX [1, 10]: −0.063
MTT [2, 10]: −0.344
ROS [3, 10]: −0.347
ΔΨm [4, 10]: 0.715
nucOX [5, 10]: 0.075
GE-HTS [6, 10]: 0.033
Viability [7, 10]: 0.848
cyt c [8, 10]: 0.373

C[C@H]1C[C@@H]2[C@H]([C@@H](O)C[C@@]3(C)[C@H]2CC[C@]3(O)C(=O)CO)[C@@]2(C)C=CC(=O)C=C12 [methylprednisolone]
mitoOX [1]: −0.270
MTT [2]: −1.014
ROS [3]: 0.133
ΔΨm [4]: −0.375
nucOX [5]: −0.138
GE-HTS [6]: −0.220
Viability [7]: −0.631
cyt c [8]: −0.102

Cc1cc(=O)[nH]c(=S)[nH]1 [methylthiouracil]
mitoOX [1, 9]: −0.302
MTT [2, 9]: −0.633
ROS [3, 9]: 0.815
ΔΨm [4, 9]: −0.553
nucOX [5, 9]: 0.146
GE-HTS [6, 9]: −0.029
Viability [7, 9]: −0.235
cyt c [8, 9]: 0.846

CN1CCCC(CC2c3ccccc3Sc3ccccc32)C1 (stereo not drawn) [metixene]
mitoOX [1]: −1.236
MTT [2]: −0.786
ROS [3]: −0.834
ΔΨm [4]: −0.713
nucOX [5]: −1.058
GE-HTS [6]: −1.190
Viability [7]: 1.221
cyt c [8]: 0.097

COCCc1ccc(OCC(O)CNC(C)C)cc1 (stereo not drawn) [metoprolol, reference compound]
mitoOX [1, 14]: −0.342
mitoOX [1, 12]: 0.241
MTT [2, 14]: −1.894
MTT [2, 12]: −1.660
ROS [3, 14]: 0.253
ROS [3, 12]: 0.652
ΔΨm [4, 14]: −0.997
ΔΨm [4, 12]: −0.515
nucOX [5, 14]: −0.430
nucOX [5, 12]: 0.546
GE-HTS [6, 14]: −0.423
GE-HTS [6, 12]: 0.450
Viability [7, 14]: 0.437
Viability [7, 12]: 0.326
cyt c [8, 14]: 0.496
cyt c [8, 12]: 0.596

COc1cc2occ(-c3cc4c(cc3OC)OCO4)c(=O)c2cc1OC [milldurone]
mitoOX [1, 15]: −0.215
MTT [2, 15]: −0.713
ROS [3, 15]: 0.680
ΔΨm [4, 15]: −0.569
nucOX [5, 15]: 0.605
GE-HTS [6, 15]: 0.343
Viability [7, 15]: −0.401
cyt c [8, 15]: 0.465

Clc1ccc(C(c2ccccc2Cl)C(Cl)Cl)cc1 (stereo not drawn) [mitotane]
mitoOX [1, 9]: −0.244
MTT [2, 9]: −1.708
ROS [3, 9]: 0.460
ΔΨm [4, 9]: −0.542
nucOX [5, 9]: 0.072
GE-HTS [6, 9]: −0.030
Viability [7, 9]: −1.631
cyt c [8, 9]: −0.216

CCOC(=O)[N-]c1cn(N2CCOCC2)n[o+]1 [molsidomine]
mitoOX [1, 11]: 0.106
MTT [2, 11]: −0.651
ROS [3, 11]: −0.398
ΔΨm [4, 11]: −0.537
nucOX [5, 11]: 0.331
GE-HTS [6, 11]: 0.250
Viability [7, 11]: −0.665
cyt c [8]: −0.533
cyt c [8, 11]: 0.339

COc1ccc([C@H]2COc3cc(O)ccc3C2)c(OC)c1O [mucronulatol]
mitoOX (composite Z-score) ([1]; Conc 20 μM): −0.729
MTT (composite Z-score) ([2]; Conc 20 μM): −0.847
ROS (composite Z-score) ([3]; Conc 20 μM): −0.187
ΔΨm (composite Z-score) ([4]; Conc 20 μM): 0.006
nucOX (composite Z-score) ([5]; Conc 20 μM): −0.104
GE-HTS (composite Z-score) ([6]; Conc 20 μM): −0.345
Viability (composite Z-score) ([7]; Conc 20 μM): 1.396
cyt c (composite Z-score) ([8]; Conc 20 μM): −0.365

COc1ccc2c(c1)O[C@@H]1COc3cc(OC)c(OC)cc3[C@@H]1C2=O [mundoserone, reference compound]
mitoOX [1, 16]: −0.452
MTT [2, 16]: −1.681
ROS [3, 16]: −0.608
ΔΨm [4, 16]: 0.837
nucOX [5, 16]: −0.643
GE-HTS [6, 16]: −0.606
Viability [7, 16]: −0.425
cyt c [8, 16]: 0.418

COc1c(-c2coc3cc4c(cc3c2=O)CC(O)C(C)(C)O4)ccc2c1C=CC(C)(C)O2 (stereo not drawn) [mundulone, reference compound]
mitoOX [1, 10]: −1.091
MTT [2, 10]: −2.487
ROS [3, 10]: −0.141
ΔΨm [4, 10]: 3.037
nucOX [5, 10]: −1.888
GE-HTS [6, 10]: −1.719
Viability [7, 10]: −1.113
cyt c [8, 10]: −0.843
